Measurements: patent US20140066434A1, “Methods and Compositions for Treating Parkinson's Disease” (ARIAD PHARMACEUTICALS, INC., priority 2011, published 2014)

Experiment: Phase 1 clinical trial, safety

Cc1ccc(C(=O)Nc2ccc(CN3CCN(C)CC3)c(C(F)(F)F)c2)cc1C#Cc1cnc2cccnn12 [ponatinib, 3-(Imidazo[1,2-b]pyridazin-3-ylethynyl)-4-methyl-N-(4-((4-methylpiperazin-1-yl)methyl)-3-(trifluoromethyl)phenyl)benzamide]
DLTs (45 mg cohort): a reversible rash was seen with one patient
DLTs (60 mg cohort): four patients developed reversible pancreatic related DLT (pancreatitis)
DLTs (2 to 30 mg cohorts): No DLTs
drug-related adverse events of any grade: anemia (phase 1, all cohorts): 12%
drug-related adverse events of any grade: lipase increase (phase 1, all cohorts): 12%
drug-related adverse events of any grade: nausea (phase 1, all cohorts): 12%
drug-related adverse events of any grade: rash (phase 1, all cohorts): 12%
drug-related adverse events of any grade: thrombocytopenia (phase 1, all cohorts): 25%
maximum tolerated dose (MTD) (phase 1, mono-hydrochloride salt): 45 mg
